Reference: the PolyMetriX glass transition set
± gives the standard deviation of the reports.

First: *CCCCCOC(=O)NCC(F)(F)C(F)(F)C(F)(F)C(F)(F)CNC(=O)O* (repeat unit)
Second: *CCCCCCOC(=O)CCC(=O)O* (repeat unit)
The glass transition temperature of the first is higher: 33.00 °C for the first, -50.00 °C for the second.

Going from *C(=O)Nc1ccc(NC(=O)Nc2ccc(NC(=O)c3ccc4c(c3)C(=O)N(c3ccc(NC(=O)Nc5ccc(N6C(=O)c7ccc(*)cc7C6=O)cc5)cc3)C4=O)cc2)cc1 (repeat unit) to *C(=O)Nc1ccc(Oc2ccc(NC(=O)c3ccc4c(c3)C(=O)N(c3ccc(-c5sc(-c6ccc(N7C(=O)c8ccc(*)cc8C7=O)cc6)c(-c6ccccc6)c5-c5ccccc5)cc3)C4=O)cc2)cc1 (repeat unit), the glass transition temperature rises from 208.00 °C to 320.00 °C.

Going from *c1ccc(Oc2ccc(C(c3ccc(Oc4ccc(-c5nnc(*)c6c(-c7ccccc7)c(-c7ccc8ccccc8c7)c(-c7ccc8ccccc8c7)c(-c7ccccc7)c56)cc4)cc3)(C(F)(F)F)C(F)(F)F)cc2)cc1 (repeat unit) to *c1ccc(-c2ccc(-c3cc(-c4ccc(Oc5ccc(-c6ccccc6)cc5)cc4)c4cc(-c5ccc6nc(*)cc(-c7ccc(Oc8ccc(-c9ccccc9)cc8)cc7)c6c5)ccc4n3)cc2)cc1 (repeat unit), the glass transition temperature rises from 291.00 °C to 364.00 °C.

First: *CC(COC(C)C)O* (repeat unit)
Second: *O[Si](*)(C)C (repeat unit) [Poly(dimethylsiloxane)]
The glass transition temperature of the first is higher: -67.00 °C for the first, -124 ± 2 °C for the second.

Compared with *c1cc(CCCC)c(*)s1 (repeat unit), *c1cc(SCCCCCCCCCCCC)c(*)s1 (repeat unit) is lower in glass transition temperature: 54.50 ± 6.4 °C for the first, 33.00 °C for the second.

Compared with *CC(*)OC(=O)C(F)(F)C(F)(F)F (repeat unit), *C(F)(F)C(*)(F)C(F)(F)F (repeat unit) is higher in glass transition temperature: 42.00 °C for the first, 158.50 °C for the second.

Going from *CCCOC(=O)c1cccc(C(=O)O*)c1 (repeat unit) to *Nc1ccc(Br)cc1-c1ccc(NC(=O)c2cccc(C(*)=O)c2)cc1 (repeat unit), the glass transition temperature rises from 36.00 °C to 253.00 °C.

Going from *Oc1ccc(Oc2ccc(C(=O)c3ccc(Oc4ccc(Oc5cccc(*)n5)cc4)cc3)cc2)cc1 (repeat unit) to *c1ccc(Oc2ccc(-c3ccc(Oc4ccc(-c5nc(-c6ccccn6)nnc5*)cc4)cc3)cc2)cc1 (repeat unit), the glass transition temperature rises from 124.00 °C to 230.00 °C.

Going from *CC(*)c1ccc(OCCC)cc1 (repeat unit) [Poly(p-n-propoxy styrene)] to *CC(*)c1ccc(OCCCC)cc1 (repeat unit) [Poly(p-n-butoxy styrene) ], the glass transition temperature falls from 70 ± 3.5 °C to 47 ± 3.3 °C.

Compared with *Oc1ccc(C2(c3ccc(Oc4nc(*)nc(OC)n4)cc3)CCCCC2)cc1 (repeat unit), *Oc1ccc(C2(c3ccc(OC(=O)c4ccc(C(*)=O)cc4)cc3)CCc3ccccc32)cc1 (repeat unit) is higher in glass transition temperature: 200.00 °C for the first, 312.00 °C for the second.

Going from *C(F)(F)C(*)(F)OC(F)(F)C(F)(F)C(F)(F)C(F)(F)F (repeat unit) to *c1ccc(C(F)(F)C(*)(F)F)cc1 (repeat unit), the glass transition temperature rises from -10.00 °C to 77.0 °C.

First: *c1ccc(Oc2ccc(C3(c4ccc(Oc5ccc(N6C(=O)c7ccc(Oc8ccc(C9(c%10ccc(Oc%11ccc%12c(c%11)C(=O)N(*)C%12=O)cc%10)CCC(c%10ccccc%10)CC9)cc8)cc7C6=O)cc5)cc4)CCC(C(C)(C)C)CC3)cc2)cc1 (repeat unit)
Second: *C(=O)Nc1ccc(Oc2ccc(C3(c4ccc(Oc5ccc(NC(=O)c6ccc7c(c6)C(=O)N(c6ccc(Oc8cccc(N9C(=O)c%10ccc(*)cc%10C9=O)c8)cc6)C7=O)cc5)cc4)NC(=O)c4ccccc43)cc2)cc1 (repeat unit)
The glass transition temperature of the first is lower: 243.00 °C for the first, 272.00 °C for the second.

First: *CC(*)C(=O)OC1CC(C)CC(C)(C)C1 (repeat unit)
Second: *CC(*)C(=O)NCCC[N+](C)(C)C (repeat unit)
The glass transition temperature of the first is lower: 15.00 °C for the first, 57.00 °C for the second.

First: *O[Si](*)(C)CCCOCCOCCOc1ccc(COc2ccc3cc(C#N)ccc3c2)cc1 (repeat unit)
Second: *CCCCCCCCCCOc1ccc(/C=C2\CCC/C(=C\c3ccc(O*)cc3)C2=O)cc1 (repeat unit)
The glass transition temperature of the first is lower: 30.00 °C for the first, 85.00 °C for the second.

First: *Oc1ccc(C2(c3ccc(Oc4ccc(C(=O)c5ccc(C(=O)c6ccc(*)c(C(F)(F)F)c6)cc5)cc4C(F)(F)F)cc3)c3ccccc3-c3ccccc32)cc1 (repeat unit)
Second: *Oc1cccc2ccc(Oc3ccc(NC(=O)c4ccc(C(c5ccc(C(=O)Nc6ccc(*)cc6)cc5)(C(F)(F)F)C(F)(F)F)cc4)cc3)cc12 (repeat unit)
The glass transition temperature of the first is lower: 229.00 °C for the first, 252.00 °C for the second.

First: *CC(*)c1ccc(C(=O)CCN2CCCCC2)cc1 (repeat unit)
Second: */C=C/C(C(=O)OCc1ccccc1)C(*)C(=O)OCc1ccccc1 (repeat unit)
The glass transition temperature of the first is higher: 38.00 °C for the first, 21.00 °C for the second.

Compared with *c1ccc(C(=O)c2ccc(-n3nc(-c4ccccc4)c4cc(Oc5ccc6c(-c7ccccc7)nn(*)c(=O)c6c5)ccc4c3=O)cc2)cc1 (repeat unit), *c1ccc(Oc2ccc(-c3cc(-c4ccccc4)c4cc(Oc5ccc6nc(*)c(-c7ccccc7)c(-c7ccccc7)c6c5)ccc4n3)cc2)cc1 (repeat unit) is higher in glass transition temperature: 275.50 °C for the first, 305.00 °C for the second.

Compared with *Nc1ccc(NC(=O)c2cc(C(*)=O)c(C(=O)O)cc2C(=O)O)cc1 (repeat unit), *Oc1cccc2ccc(Oc3ccc(NC(=O)c4cccc(C(=O)Nc5ccc(*)cc5)c4)cc3)cc12 (repeat unit) is lower in glass transition temperature: 283.40 °C for the first, 256.00 °C for the second.

Going from *CC(*)(C)C(=O)OCCO[N+](=O)[O-] (repeat unit) to *CC(*)(C)C(=O)OCC1OC(n2ccc(=O)[nH]c2=O)C(O)C1O (repeat unit), the glass transition temperature rises from 55.00 °C to 143.50 °C.

First: *CCCCCCOC(=O)C(CCCCCCCCCCP(=O)(O)O)C(=O)OCCCCCCOc1ccc(-n2on2-c2ccc(O*)cc2)cc1 (repeat unit)
Second: *Nc1ccc(NC(=O)c2ccc(NC(=O)CCCCCCCCCCC(=O)Nc3ccc(C(*)=O)cc3)cc2)cc1C(=O)OCCCCCCCCCCCCCCCC (repeat unit)
The glass transition temperature of the first is lower: 16.00 °C for the first, 199.50 °C for the second.

Going from *CC(*)(CC(=O)O)C(=O)O (repeat unit) to *CC(*)(C)C#N (repeat unit) [Poly(methacrylonitrile)], the glass transition temperature falls from 141.00 °C to 101.67 ± 19 °C.

First: *Oc1ccc2cc(Oc3ccc4c(=O)n5c6cc(-c7ccc8c(c7)nc7c9ccc(*)c%10cccc(c(=O)n87)c%109)ccc6nc5c5cccc3c45)ccc2c1 (repeat unit)
Second: *c1ccc(Oc2ccc(N3C(=O)c4cccc(Oc5ccc(-c6ccc(Oc7cccc8c7C(=O)N(*)C8=O)cc6)cc5)c4C3=O)cc2)cc1 (repeat unit)
The glass transition temperature of the first is higher: 413.00 °C for the first, 277.00 °C for the second.

First: *c1ccc(Oc2ccc(C(C)(c3ccccc3)c3ccc(Oc4ccc(-c5nc(-c6ccccn6)nnc5*)cc4)cc3)cc2)cc1 (repeat unit)
Second: *Oc1ccc(S(=O)(=O)c2ccc(Oc3ccc(C(C)(C)c4ccc(*)cc4)cc3)cc2N)c(N)c1 (repeat unit)
The glass transition temperature of the first is higher: 232.00 °C for the first, 210.50 °C for the second.

Going from */C=C/C(C)(C(=O)OC)C(*)C (repeat unit) to *Oc1ccc(C(C)(C)c2ccc(OC(=O)CCCCC(*)=O)c(C)c2)cc1C (repeat unit), the glass transition temperature falls from 34.00 °C to 33.50 °C.

Compared with *Oc1ccc(C(=O)NNC(=O)c2cccc(C(=O)NNC(=O)c3ccc(OC(=O)c4cccc(C(*)=O)c4)cc3)c2)cc1 (repeat unit), *Oc1c(C)cc(-c2cc(C)c(Oc3ccc(C(=O)c4ccc5cc(C(=O)c6ccc(*)cc6)ccc5c4)cc3)c(C)c2)cc1C (repeat unit) is higher in glass transition temperature: 180.00 °C for the first, 270.00 °C for the second.

First: *CCCCCCCCCCN1C(=O)C2C3C=CC(C4C(=O)N(*)C(=O)C34)C2C1=O (repeat unit)
Second: *CCCCCCN1C(=O)C(=O)N(c2ccc(Oc3ccc(N4C(=O)C(=O)N(*)C4=O)cc3)cc2)C1=O (repeat unit)
The glass transition temperature of the first is higher: 219.00 °C for the first, 172.00 °C for the second.

Compared with */C=C/CCCCCCC(Cl)CCCCCC* (repeat unit), *CCCCCCCCNC(=O)CCCCCCCCCCCCCCCCC(=O)N* (repeat unit) is higher in glass transition temperature: -57.00 °C for the first, 36.00 °C for the second.

Compared with *c1ccc(OCCCCCOc2ccc(N3C(=O)c4ccc(-c5cccc6c5C(=O)N(*)C6=O)cc4C3=O)cc2)cc1 (repeat unit), *c1cccc(N2C(=O)c3cccc(Oc4ccc(Oc5cccc6c5C(=O)N(*)C6=O)cc4)c3C2=O)c1 (repeat unit) is higher in glass transition temperature: 208.00 °C for the first, 259.00 °C for the second.

First: *c1ccc(N2C(=O)c3ccc(C(=O)c4ccc5c(c4)C(=O)N(c4ccc(-c6nc7cc(-c8ccc9nc(-c%10ccccc%10)c(*)nc9c8)ccc7nc6-c6ccccc6)cc4)C5=O)cc3C2=O)cc1 (repeat unit)
Second: */C=C/c1ccc(/C=C/c2ccc3c(c2)Sc2cc(*)ccc2N3c2ccc(OCCCCCCCCCCCC)cc2)cc1 (repeat unit)
The glass transition temperature of the first is higher: 260.00 °C for the first, 167.00 °C for the second.

Compared with *CCc1cc(Cl)c(*)c(Cl)c1 (repeat unit), *CCC(*)(C)c1ccccc1 (repeat unit) is lower in glass transition temperature: 110.00 °C for the first, 93.00 °C for the second.

Compared with *Oc1cccc(NC(=O)CCCCCCCCC(=O)Nc2ccc(*)cc2)c1 (repeat unit), *c1ccc(Oc2ccc(-c3nnc(*)o3)cc2)cc1 (repeat unit) is higher in glass transition temperature: 125.00 °C for the first, 240.00 °C for the second.

Compared with *Nc1cc(NC(=O)NC2CCC(CC3CCC(NC(*)=O)CC3)CC2)cc(C(=O)Nc2cccc3c2C(=O)c2ccccc2C3=O)c1 (repeat unit), *Oc1ccc(C2(c3ccc(OC(*)=O)c(C)c3)CC3CC2C2CCCC32)cc1C (repeat unit) is higher in glass transition temperature: 156.00 °C for the first, 217.00 °C for the second.

Going from *O[Si](C)(C)Oc1ccc(*)cc1 (repeat unit) to *Oc1ccc(C(c2ccc(OC(*)=S)cc2)C(C)C)cc1 (repeat unit), the glass transition temperature rises from 90.00 °C to 135.00 °C.

Going from *c1nnc(-c2sc(-c3nnc(-c4cc(OCCCCCCCC)c(*)cc4OCCCCCCCC)o3)cc2CCCCCCCC)o1 (repeat unit) to *CCC1CC(*)C2C3CC(CC)C(C3)C12 (repeat unit), the glass transition temperature rises from 124.30 °C to 138.00 °C.
